pEC50: −log10 of the molar value.
Columns and labels:
Solubility in water = type: physicochemical
TNFα released by PBMCs = test: Inhibition of TNFα released by PBMCs after LPS stimulation in vitro (ELISA); type: cell-based, human; settings: for Inhibition Degree (%): TNFα inhibition rate, LPS 0.1 μg/ml-stimulated PBMCs, compound concentration 3.0 μM; for pEC50: concentration giving 50% TNFα inhibition, LPS-stimulated PBMCs, nonlinear regression
Description: Pharmacological Research: Effects of Monocyte (PBMC) Stimulation by LPS on TNFα
Cytokine TNFα released by PBMCs in peripheral blood after lip polysaccharide (LPS) stimulation in vitro was studied. The followings are research methods of cytokine TNFα released by PBMCs, which are inhibited by compounds of the invention.
PBMCs were obtained from blood of at least three volunteers after heparin treatment, by the method of gradient extraction. PBMCs were collected and washed with 1640 culture medium three times (10% calf serum, 2 mM L-glutamine, […] mercaptoethanol, 50 μg/ml streptomycin, 50 U/ml penicillin). The above PBMCs were placed onto a 24-well cell culture plate. The concentration was adjusted to 1×10^6 cells/ml with 1640 culture medium. Test compounds were dissolved in dimethylsulfoxide at an appropriate concentration. The resultant solution was added to the above cell culture medium and the culture plate was placed in a CO2 incubator (5% CO2, 90% humidity) for 1 hour. Then, LPS (Sigma) was added to adjust the concentration to 0.1 μg/ml (except for contrast). After 20 hrs of incubation, the content of TNFα in supernatant of the above PBMC culture medium was determined by ELISA kit (America Genzyme Co) using standard method. The measured value of the control (no active compound), and the measured value of the tested compounds was used to calculate the TNFα inhibition rate. The concentration of compounds giving a 50% TNFα inhibition (IC50 value) was calculated by nonlinear regression analysis. Each concentration was determined twice and an average value was obtained.

[1] = Homo sapiens, PBMC, read-out: Inhibition Degree (%)

Molecule: 2-(1-(2-hydroxyethyl)-2,6-dioxopiperidin-3-yl)isoindolin-1,3-dione 2-(diethylamino)acetate hydrochloride [Example 10]
- Solubility in water (Solubility in water): higher than 100 mg/mL

Molecule: O=C1CCC(N2C(=O)c3cccc([N+](=O)[O-])c3C2=O)C(=O)N1CCO (stereo not drawn) [Example 24, 2-(1-(2-hydroxyethyl)-2,6-dioxopiperidin-3-yl)-4-nitroisoindoline-1,3-dione]
- inhibition at 3 µM (TNFα released by PBMCs; [1]): 28%

Molecule: COCCN1C(=O)CCC(N2C(=O)c3cccc(N(C)C)c3C2=O)C1=O (stereo not drawn) [Example 29, 4-(dimethylamino)-2-(1-(2-methoxyethyl)-2,6-dioxopiperidin-3-yl)isoindoline-1,3-dione]
- inhibition at 3 µM (TNFα released by PBMCs; [1]): 64%

Molecule: O=C1CCC(N2C(=O)c3ccccc3C2=O)C(=O)N1CCO (stereo not drawn) [Example 1, 2-(1-(2-Hydroxyethyl)-2,6-dioxopiperidin-3-yl)isoindoline-1,3-dione]
- inhibition at 3 µM (TNFα released by PBMCs; [1]): 70%

Molecule: 2-(1-(2-hydroxyethyl)-2,6-dioxopiperidin-3-yl)isoindolin-1,3-dione 2-(1-piperidyl)acetate hydrochloride [Example 14]
- Solubility in water (Solubility in water): more than 100 mg/mL

Molecule: 4-fluoro-2-(1-(2-methoxyethyl)-2,6-dioxopiperidin-3-yl)-4-nitroisoindoline-1,3-dione [Example 30]
- Inhibition Degree (%) (TNFα released by PBMCs): 58%

Molecule: 4,5,6,7-tetrafluoro-2-(1-(2-methoxyethyl)-2,6-dioxopiperidin-3-yl)-4-nitroisoindoline-1,3-dione [Example 31]
- Inhibition Degree (%) (TNFα released by PBMCs): 62%

Molecule: COCCN1C(=O)CCC(N2C(=O)c3cccc(N)c3C2=O)C1=O (stereo not drawn) [Example 27, 4-amino-2-(1-(2-methoxyethyl)-2,6-dioxopiperidin-3-yl)isoindoline-1,3-dione]
- pEC50 (TNFα released by PBMCs; Homo sapiens, PBMC): 6.52
- inhibition at 3 µM (TNFα released by PBMCs; [1]): 92%

Molecule: CCN(CC)CC(=O)OCCN1C(=O)CCC(N2C(=O)c3ccccc3C2=O)C1=O (stereo not drawn) [Example 9, 2-(1-(2-hydroxyethyl)-2,6-dioxopiperidin-3-yl)isoindolin-1,3-dione 2-(diethylamino)acetate]
- Inhibition Degree (%) (TNFα released by PBMCs): 20%

Molecule: COCCN1C(=O)CCC(N2C(=O)c3cccc(NC(C)=O)c3C2=O)C1=O (stereo not drawn) [Example 28, N-(2-(1-(2-methoxyethyl)-2,6-dioxopiperidin-3-yl)-1,3-dioxoisoindolin-7-yl)acetamide]
- inhibition at 3 µM (TNFα released by PBMCs; [1]): 78%

Molecule: O=C1CCC(N2C(=O)c3ccccc3C2=O)C(=O)N1 (stereo not drawn) [Thalidomide, reference compound]
- inhibition at 100 µM (TNFα released by PBMCs; [1]): 22%

Molecule: Nc1cccc2c1C(=O)N(C1CCC(=O)N(CCO)C1=O)C2=O (stereo not drawn) [Example 26, 4-amino-2-(1-(2-hydroxyethyl)-2,6-dioxopiperidin-3-yl)isoindoline-1,3-dione]
- pEC50 (TNFα released by PBMCs; Homo sapiens, PBMC): 6.60
- inhibition at 3 µM (TNFα released by PBMCs; [1]): 95%

Molecule: O=C1CCC(N2C(=O)c3ccccc3C2=O)C(=O)N1CCCCO (stereo not drawn) [Example 22, 2-(1-(4-hydroxybutyl)-2,6-dioxopiperidin-3-yl)isoindoline-1,3-dione]
- inhibition at 3 µM (TNFα released by PBMCs; [1]): 18%
